# Assay results taken from patent US10359701B2, “Material for forming underlayer film for lithography, composition for forming underlayer film for lithography, underlayer film for lithography and pattern forming method” (Mitsubishi Gas Chemical Company, Inc., priority 2015, dated 2019).
# Assays:
# [1] = Thermogravimetric measurement (TG) of the synthesized compound; format: physicochemical
# [2] = Solubility: amount of compound dissolved in PGMEA at 23° C.
# Protocol: The amount of the compound dissolved in propylene glycol monomethyl ether acetate (PGMEA) was measured at 23° C., and the results were evaluated according to the following criteria.
# Evaluation A: 10% by mass or more
# Evaluation B: less than 10% by mass
Compound,20% thermal weight loss temperature [1],solubility in PGMEA [2],solubility in PGMEA (Evaluation) [2]
"N#COc1ccc(C(c2ccccc2)c2ccc(OC#N)cc2)cc1 [B-CN, bis(4-cyanatophenyl)phenylmethane]",≥ 400 °C,≥ 10 % by mass,A (10% by mass or more)
"N#COc1ccc(-c2ccc(OC#N)c(C(c3ccc(-c4ccccc4)cc3)c3cc(-c4ccc(OC#N)cc4)ccc3OC#N)c2)cc1 [BiF-CN, bis(4,4′-cyanatobiphenyl) biphenylmethane]",≥ 400 °C,≥ 10 % by mass,A (10% by mass or more)
